The source of these data is patent US11753407B2, “Compounds for treating spinal muscular atrophy” (PTC Therapeutics, Inc., priority 2012, dated 2023).

Each structure is given as a SMILES string.

In series [1] the test system is SMN2 minigene mRNA (SMN2-A minigene) in HEK293H cells. Put plainly: SMN2 minigene mRNA splicing RT-qPCR assay in cultured cells. The settings on record: Homo sapiens, HEK293-H; concentration increasing full length SMN2 mRNA 1.5-fold relative to vehicle-treated cells; HEK293H cells with SMN2-A minigene, 24 hours, 7-point concentration data; read-out: EC1.5x for production of full length SMN2 mRNA. In kind it is cell-based, human. The method in brief: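 Cells are seeded, left to attach 4-6 h, then dosed with test compound across seven concentrations and incubated 24 h. Lysates undergo RT-qPCR with primers/probe specific to the exon 7-containing minigene transcript, co-amplified with GAPDH. Fold change over vehicle is calculated, and EC1.5× marks the 1.5-fold point.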
Background: In qPCR the cycle at which signal appears reflects the starting amount.

Series [2] concerns Smn protein in SMA patient fibroblast cells (GM03813). Put plainly: Smn protein assay in cultured cells (SMN HTRF). In kind it is cell-based, human. The settings on record: SMA patient fibroblast cells, 48 hours; for maximum fold (Fold) increase of Smn protein: 7-point concentration data, fold relative to vehicle control; for EC1.5x for Smn protein expression: 7-point concentration curve, SMN HTRF, concentration producing 1.5 times Smn protein vs DMSO vehicle control. The essentials: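 Patient-derived SMA fibroblasts are plated, given compound for 48 h, then lysed in RIPA buffer with protease inhibitors. Lysate Smn is detected by an anti-SMN d2/kryptate HTRF pair incubated overnight. The normalized ΔF is divided by the vehicle ΔF to give fold change, from which EC1.5× and maximum fold are taken.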
(In TR-FRET formats the signal depends on donor and acceptor labels being close together.)

Usually melting point stands for the temperature, or range, at which the solid turns liquid. In turn, `COc1ccc(-c2cc(=O)n3cc(N4CCNCC4)ccc3n2)cc1` [Cpd 1, 2-(4-methoxyphenyl)-7-(piperazin-1-yl)-4H-pyrido[1,2-a]pyrimidin-4-one] yielded a melting point of 182 to 184 °C. The EC (1.5-fold increase) in series [1] was 0.3 to 1 µM. In series [2], the “maximum fold (Fold) increase of Smn protein” value (from here on “maximum fold (Fold) increase”) is “** (a fold increase between >1.2 and ≤1.35 is indicated by two stars (**))”.
Regarding `CCc1cc(C2=CCN(C)CC2)cn2c(=O)cc(-c3ccc(OC)c(OC)c3)nc12` [Compound 415, 2-(3,4-dimethoxyphenyl)-9-ethyl-7-(1-methyl-1,2,3,6-tetrahydropyridin-4-yl)-4H-pyrido[1,2-a]pyrimidin-4-one], the melting point lay within 177 to 182 °C. Besides, the EC (1.5-fold increase) in series [1] was less than 0.1 µM. Besides, in series [2], the “maximum fold (Fold) increase” value is “*** (a fold increase between >1.35 and ≤1.5 is indicated by three stars (***))”.
Regarding `COc1ccc(-c2cc(=O)n3cc(N4C[C@@H]5CN(C(C)C)C[C@@H]5C4)ccc3n2)cc1F` [Compound 281, 2-(3-fluoro-4-methoxyphenyl)-7-[(3aR,6aS)-5-(propan-2-yl)hexahydropyrrolo[3,4-c]pyrrol-2(1H)-yl]-4H-pyrido[1,2-a]pyrimidin-4-one], the melting point was 189 to 192 °C. Further, the EC (1.5-fold increase) in series [1] fell in the range of 0.1 to 0.3 µM. In addition, the “maximum fold (Fold) increase” value in series [2] was “** (a fold increase between >1.2 and ≤1.35 is indicated by two stars (**))”.
Turning to `Cc1cn2cc(-c3cc(=O)n4cc(N5CC[C@@H](N(C)C)C5)ccc4n3)cc(F)c2n1` [Compound 274, 7-[(3R)-3-(dimethylamino)pyrrolidin-1-yl]-2-(8-fluoro-2-methylimidazo[1,2-a]pyridin-6-yl)-4H-pyrido[1,2-a]pyrimidin-4-one], the melting point is 300 °C (dec.). Also, in series [1], the EC (1.5-fold increase) is less than 0.1 µM. Further, in series [2], the “EC1.5x for Smn protein expression” value is “**** (an EC1.5x≤0.3 μM is indicated by four stars (****))” and the “maximum fold (Fold) increase” value is “***** (a fold increase >1.65 is indicated by five stars (*****))”.
Compound `CCc1nc(C)cn2nc(-c3cc(=O)n4cc(C5CCNCC5)cc(C)c4n3)cc12` [Compound 771, 2-(4-ethyl-6-methylpyrazolo[1,5-a]pyrazin-2-yl)-9-methyl-7-(piperidin-4-yl)-4H-pyrido[1,2-a]pyrimidin-4-one] came in with a melting point of 241 to 249 °C. For the same compound, the EC (1.5-fold increase) in series [1] is less than 0.1 µM. Further, in series [2], the “EC1.5x for Smn protein expression” value was “**** (an EC1.5x≤0.3 μM is indicated by four stars (****))” and the “maximum fold (Fold) increase” value is listed as “***** (a fold increase >1.65 is indicated by five stars (*****))”.
For `Cc1cn2nc(-c3cc(=O)n4cc(C5=CCN(C6CCC6)CC5)ccc4n3)cc2c(C)n1` [Compound 356, 7-(1-cyclobutyl-1,2,3,6-tetrahydropyridin-4-yl)-2-(4,6-dimethylpyrazolo[1,5-a]pyrazin-2-yl)-4H-pyrido[1,2-a]pyrimidin-4-one], the melting point lay in the range of 191 to 193 °C. Also, the EC (1.5-fold increase) in series [1] is less than 0.1 µM. Further, in series [2], the “EC1.5x for Smn protein expression” value is “*** (an EC1.5× between >0.3 μM and ≤1 μM is indicated by three stars (***))”; the “maximum fold (Fold) increase” value was “**** (a fold increase between >1.5 and ≤1.65 is indicated by four stars (****))”.
Take `Cc1cn2cc(-c3cc(=O)n4cc(N5CCNCC5)ccc4n3)nc2c(C)n1` [Compound 118, 2-(6,8-dimethylimidazo[1,2-a]pyrazin-2-yl)-7-(piperazin-1-yl)-4H-pyrido[1,2-a]pyrimidin-4-one]: the melting point lay in the range of 189 to 192 °C. For the same compound, the EC (1.5-fold increase) in series [1] is 0.1 to 0.3 µM. Also, in series [2], the “EC1.5x for Smn protein expression” value is “*** (an EC1.5× between >0.3 μM and ≤1 μM is indicated by three stars (***))”; the “maximum fold (Fold) increase” value is on record as “***** (a fold increase >1.65 is indicated by five stars (*****))”.
Turning to `Cn1cc2cc(-c3cc(=O)n4cc(C5=CCNCC5)ccc4n3)ccc2n1` [Compound 474, 2-(2-methyl-2H-indazol-5-yl)-7-(1,2,3,6-tetrahydropyridin-4-yl)-4H-pyrido[1,2-a]pyrimidin-4-one], the melting point lay in the range of 239 to 241 °C. Besides, the EC (1.5-fold increase) in series [1] was less than 0.1 µM. In series [2], the “EC1.5x for Smn protein expression” value is reported as “**** (an EC1.5x≤0.3 μM is indicated by four stars (****))”; the “maximum fold (Fold) increase” value is “**** (a fold increase between >1.5 and ≤1.65 is indicated by four stars (****))”.
Turning to `COc1ccc(-c2cc(=O)n3cc(N4CCN[C@@H](C)C4)ccc3n2)cc1OC` [Compound 30, 2-(3,4-dimethoxyphenyl)-7-[(3S)-3-methylpiperazin-1-yl]-4H-pyrido[1,2-a]pyrimidin-4-one], the melting point is 153 to 158 °C. Besides, the EC (1.5-fold increase) in series [1] is less than 0.1 µM. In addition, in series [2], the “EC1.5x for Smn protein expression” value was “** (an EC1.5× between >1 μM and ≤3 μM is indicated by two stars (**))”; the “maximum fold (Fold) increase” value is “**** (a fold increase between >1.5 and ≤1.65 is indicated by four stars (****))”.
In turn, `Cc1nc2ccc(-c3cc(=O)n4cc(C5=CCN(C)CC5)ncc4n3)cc2o1` [Compound 422, 2-(2-methyl-1,3-benzoxazol-6-yl)-7-(1-methyl-1,2,3,6-tetrahydropyridin-4-yl)-4H-pyrazino[1,2-a]pyrimidin-4-one] returned a melting point of 240 to 242 °C. In addition, the EC (1.5-fold increase) in series [1] is less than 0.1 µM. Besides, in series [2], the “EC1.5x for Smn protein expression” value was “** (an EC1.5× between >1 μM and ≤3 μM is indicated by two stars (**))”; the “maximum fold (Fold) increase” value is “*** (a fold increase between >1.35 and ≤1.5 is indicated by three stars (***))”.
In the case of `Cc1cn2cc(-c3cc(=O)n4cc(N5CCNCC5)ccc4n3)cc(Cl)c2n1` [Compound 287, 2-(8-chloro-2-methylimidazo[1,2-a]pyridin-6-yl)-7-(piperazin-1-yl)-4H-pyrido[1,2-a]pyrimidin-4-one], the melting point lay within 245 to 251 °C. The EC (1.5-fold increase) in series [1] is less than 0.1 µM. In addition, in series [2], the “EC1.5x for Smn protein expression” value is recorded as “**** (an EC1.5x≤0.3 μM is indicated by four stars (****))” and the “maximum fold (Fold) increase” value is given as “***** (a fold increase >1.65 is indicated by five stars (*****))”.
For `CCN1CCC(c2ccc3nc(-c4ccc(OC)c(OC)c4)cc(=O)n3c2)CC1` [Compound 404, 2-(3,4-dimethoxyphenyl)-7-(1-ethylpiperidin-4-yl)-4H-pyrido[1,2-a]pyrimidin-4-one], the melting point lay within 155 to 157 °C. Moreover, in series [1], the EC (1.5-fold increase) was 0.3 to 1 µM. Moreover, in series [2], the “EC1.5x for Smn protein expression” value is “** (an EC1.5× between >1 μM and ≤3 μM is indicated by two stars (**))”; the “maximum fold (Fold) increase” value was “**** (a fold increase between >1.5 and ≤1.65 is indicated by four stars (****))”.
`Cc1cn2cc(-c3cc(=O)n4cc(C5CCN(CCO)CC5)ccc4n3)ccc2n1` [Compound 576, 7-[1-(2-hydroxyethyl)piperidin-4-yl]-2-(2-methylimidazo[1,2-a]pyridin-6-yl)-4H-pyrido[1,2-a]pyrimidin-4-one] yielded a melting point of 200 to 202 °C. Also, the EC (1.5-fold increase) in series [1] is less than 0.1 µM. In addition, in series [2], the “EC1.5x for Smn protein expression” value is “**** (an EC1.5x≤0.3 μM is indicated by four stars (****))” and the “maximum fold (Fold) increase” value was “***** (a fold increase >1.65 is indicated by five stars (*****))”.
For `COc1ccc(-c2cc(=O)n3cc(N4CCN(C)CC4)ccc3n2)cc1` [Compound 2, 2-(4-methoxyphenyl)-7-(4-methylpiperazin-1-yl)-4H-pyrido[1,2-a]pyrimidin-4-one], the melting point was 178 to 182 °C. Besides, in series [1], the EC (1.5-fold increase) fell in the range of 1 to 3 µM. Further, the “maximum fold (Fold) increase” value in series [2] was “** (a fold increase between >1.2 and ≤1.35 is indicated by two stars (**))”.
With `Cc1cccc(-c2cc(=O)n3cc(N4CCNCC4)ccc3n2)c1` [Compound 45, 2-(3-methylphenyl)-7-(piperazin-1-yl)-4H-pyrido[1,2-a]pyrimidin-4-one], the melting point was in the range of 183 to 187 °C. Also, the EC (1.5-fold increase) in series [1] is 3 to 30 µM. The “maximum fold (Fold) increase” value in series [2] was “** (a fold increase between >1.2 and ≤1.35 is indicated by two stars (**))”.
Compound `Cc1cn2nc(-c3cc(=O)n4cc(N5CCN(CCO)CC5)ccc4n3)cc2c(C2CC2)n1` [Compound 686, 2-(4-cyclopropyl-6-methylpyrazolo[1,5-a]pyrazin-2-yl)-7-[4-(2-hydroxyethyl)piperazin-1-yl]-4H-pyrido[1,2-a]pyrimidin-4-one] yielded a melting point of 239 to 241 °C. The EC (1.5-fold increase) in series [1] was 0.3 to 1 µM. Further, in series [2], the “EC1.5x for Smn protein expression” value is “** (an EC1.5× between >1 μM and ≤3 μM is indicated by two stars (**))”; the “maximum fold (Fold) increase” value was “***** (a fold increase >1.65 is indicated by five stars (*****))”.
`COc1ccc(-c2cc(=O)n3cc(C4CCNCC4)cc(C)c3n2)cc1OC` [Compound 250, 2-(3,4-dimethoxyphenyl)-9-methyl-7-(piperidin-4-yl)-4H-pyrido[1,2-a]pyrimidin-4-one] yielded a melting point of 176 to 181 °C. Moreover, in series [1], the EC (1.5-fold increase) is less than 0.1 µM. In series [2], the “EC1.5x for Smn protein expression” value is “**** (an EC1.5x≤0.3 μM is indicated by four stars (****))” and the “maximum fold (Fold) increase” value was “***** (a fold increase >1.65 is indicated by five stars (*****))”.
